Legend:
[1] = Moore et al. 1976; cited from earlier work
[2] = In-vitro release of bupivacaine, USP Apparatus 2 Paddle Method, pH 3.0; format: physicochemical
Protocol: The in-vitro dissolution range described above may be determined by subjecting the local anesthetic formulation to in-vitro conditions specified by the USP II Paddle Method, 100 RPM, 37 degrees Celsius, pH 3.0 in 900 ml of 10 mM sodium phosphate buffer.
(§1) The in-vitro release of bupivacaine from the microcapsules of Examples 1 and 2 was examined. Dissolution was performed by using USP Apparatus 2 Paddle Method <711>at 100 rpm at 37° C. A 80 mg±3 mg of sample, irrespective of microcapsules formulation, was employed per vessel containing 900 mL of 10 mM Sodium Phosphate Buffer, pH 3.0. The samples (clear solution) were withdrawn at preset time intervals and analyzed for bupivacaine base by HPLC. The HPLC conditions are:
as §1, with “the microspheres” for “the microcapsules”, “Examples 2 (batches 1-4), 2A, 3,” for “Examples 1”, “and 4” for “and 2”, “Method at” for “Method <711>at”, “of microsphere” for “of microcapsules”, “HPLC.” for “HPLC. The HPLC conditions are:”
The in-vitro release of bupivacaine from the microspheres of Examples 2B was examined. Dissolution was performed by using USP Apparatus 2 Paddle Method <711> at 100 rpm at 37° C. A 80 mg±3 mg of sample, irrespective of microsphere formulation, was employed per vessel containing 900 mL of 10 mM Sodium Phosphate Buffer, pH 3.0. The samples (clear solution) were withdrawn at preset time intervals and analyzed for bupivacaine base by HPLC. The following 24 hour dissolution release rates in Table 7B are preferred release rates which were based on batches made in accordance with the formulation of Example 2B (10 Kg scale batches).

In Vitro Release of Bupivacaine (Cumulative Release %) ([2]; 0.5 h): 96.5%
In Vitro Release of Bupivacaine (Cumulative Release %) ([2]; 1 h): 97.09%
In Vitro Release of Bupivacaine (Cumulative Release %) ([2]; 2 h): 97.035%
In Vitro Release of Bupivacaine (Cumulative Release %) ([2]; 3 h): 97.275%
In Vitro Release of Bupivacaine (Cumulative Release %) ([2]; 4 h): 97.665%
SMILES: CCCCN1CCCCC1C(=O)Nc1c(C)cccc1C (stereo not drawn) [Bupivacaine base]
plasma bupivacaine level at which systemic toxic reactions are believed to occur [1]: 4000 ng/mL
